The source of these data is patent US9598466B2, “Glycopeptide constructs and uses thereof” (Sloan-Kettering Institute for Cancer Research, priority 2008, dated 2017).

Experiment [1] in a line: ELISA of sera from vaccinated mice for antibodies against Gb3. Format: in vivo, mice (C57BL/6J). Particulars: mice vaccinated subcutaneously, unconjugated antigen plus an adjuvant such as QS-21; sera tested against Gb3-ceramide. The method, then:
Groups of five mice were vaccinated subcutaneously with Gb3-MUC5AC or Gb3-MUC5AC-KLH conjugate plus adjuvant with appropriate controls. Sera were tested against Gb3-ceramide by ELISA.
Groups of five mice (C57BL/6J, female, 6-8 weeks old) were vaccinated three times with GB3-ceramide conjugate (5 μg equivalent of GB3), MUC5Ac peptide (5 μg equivalent of MUC5Ac), GB3-MUC5Ac-SH conjugate (5 μg equivalent of GB3-MUC5AC), GB3-MUC5Ac-KLH conjugate (1, 5 and 10 μg equivalent of GB3-MUC5Ac), Globo H-KLH conjugate (5 μg equivalent of GloboH) and KLH protein alone (5 μg equivalent of KLH) in 100 μL phosphate buffered saline (PBS) either with an adjuvant (20 μg) or without adjuvant. Vaccines were administered subcutaneously to each mouse on weeks 1, 2, 3, and 7. Mice were bled 7 days after the third vaccination and forth vaccination.
The presence of antibodies was tested by an enzyme-linked immunosorbent assay (ELISA). ELISAs were performed to determine antibody response against GB3, Globo H and KLH. The ELISA plates were coated with either GB3 antigen or Globo H at 0.2 μg/well and 0.1 μg/well respectively in ethanol or KLH at 0.1 μg/well in carbonate buffer (pH 10). The GB3-coated and Globo H coated plates were kept overnight at room temperature to evaporate ethanol, and KLH coated plates were incubated at 4° C. overnight. […] Absorbance was measured at 405 nm.

For the next experiment, the system named is human HLA-DR. The settings on record: literature (Southwood et al. 1998); cited from earlier work.

Take globotriaosyl ceramide [Gb3-ceramide]: the “antibodies against Gb3 by ELISA” value in experiment [1] is “failed to produce antibodies against Gb3”.

For GLAYKFVVPGAATPY, in the experiment with human HLA-DR, the “binding capacity to human HLA-DR alleles” value is given as “prevalently in the nanomolar range” and the “number of different alleles of human HLA-DR bound” value is reported as “up to 9”.
